Results as given in US12280032B2, “Methods and compositions for increasing the potency of antifungal agents” (Pacific Northwest Research Institute, priority 2014, dated 2025).

Tests used:
S. cerevisiae (F45) = assay: YPD plate assay with antifungal filter disk, with or without PE; type: cell-based, Saccharomyces cerevisiae; parameters: Degree of clearance: unit not given here
the fungus = assay: Effects of antifungals in the presence of PE (FIG. 4); type: cell-based; conditions: PE used in conjunction with the antifungal
[1] = test system: C. albicans fluconazole resistant strain R357; assay: YPD plate assay with antifungal filter disk, with or without PE; type: cell-based, Candida albicans; parameters: unit not given here; conditions: C. albicans strain 8357
S. cerevisiae Strain F45 = assay: Zones of growth inhibition on YPD plates containing 10 mM Enamine compound with 50 μg fluconazole disk; type: cell-based, Saccharomyces cerevisiae
Experimental: Zones of Growth Inhibition were Measured for the S. cerevisiae Strain F45 on YPD Plates Containing 10 mM of the Enamine Compound with a 50 μg Fluconazole Disk Applied.
Zones of growth inhibition were also measured for strain F45 in which F45 strains were spread on YPD plates that contained 10 mM of an Enamine compound which was poured into the plate, with a 50 μg fluconazole disk. Enamine is an unsaturated compound derived by the condensation of an aldehyde or ketone with a secondary amine Some enmities have structures that are similar to PE, as such, they were tested to measure their efficacy in increasing sensitivity to an antifungal.

[2] = test system: Candida albicans (resistant=20186.025; 8357); assay: Checkerboard assay (FICI) of PE with triazole; type: cell-based; conditions: named triazole in combination with PE
[3] = test system: Candida albicans (resistant=20186.025; 8357); assay: M.I.C. determination; type: cell-based; conditions: drug alone
[4] = test system: Candida albicans (sensitive=ATCC 90028); assay: Checkerboard assay (FICI) of PE with triazole; type: cell-based; conditions: named triazole in combination with PE
[5] = test system: Candida parapsilosis (ATCC 22019); assay: M.I.C. determination; type: cell-based; conditions: drug alone
[6] = test system: Candida tropicalis (ATCC 200956); assay: M.I.C. determination; type: cell-based; conditions: drug alone
[7] = test system: Aspergillus fumigatus (ATCC 13073); assay: Checkerboard assay (FICI) of PE with triazole; type: cell-based; conditions: named triazole in combination with PE
[8] = test system: Aspergillus fumigatus (ATCC 13073); assay: M.I.C. determination; type: cell-based; conditions: drug alone
[9] = test system: Candida krusei (ATCC 6258); assay: Checkerboard assay (FICI) of PE with triazole; type: cell-based; conditions: named triazole in combination with PE
[10] = test system: Candida krusei (ATCC 6258); assay: M.I.C. determination; type: cell-based; conditions: drug alone
[11] = test system: Candida glabrata (ATCC 36583); assay: Checkerboard assay (FICI) of PE with triazole; type: cell-based; conditions: named triazole in combination with PE
[12] = test system: Candida albicans (sensitive=ATCC 90028); assay: M.I.C. determination; type: cell-based; conditions: drug alone
[13] = test system: Cryptococcus neoformans (ATCC 24067); assay: Checkerboard assay (FICI) of PE with triazole; type: cell-based; conditions: named triazole in combination with PE
[14] = test system: Candida tropicalis (ATCC 200956); assay: Checkerboard assay (FICI) of PE with triazole; type: cell-based; conditions: named triazole in combination with PE
[15] = test system: Candida parapsilosis (ATCC 22019); assay: Checkerboard assay (FICI) of PE with triazole; type: cell-based; conditions: named triazole in combination with PE
[16] = test system: Cryptococcus neoformans (ATCC 24067); assay: M.I.C. determination; type: cell-based; conditions: drug alone
[17] = test system: Candida glabrata (ATCC 36583); assay: M.I.C. determination; type: cell-based; conditions: drug alone
BY4741 lab strain = assay: YPD plate assay with nystatin disk, with or without PE; type: cell-based, Saccharomyces cerevisiae; conditions: FIG. 9 Panel B
Experimental: In each panel, the top plate is YPD alone with a disc that contains DMSO, the bottom left plate is YPD alone with a disc that contains 50 μg Nystatin and the bottom right plate is YPD plus 10 mM PE with a disc that contains 50 μg Nystatin. The plates in FIG. 9, panel A are spread with the F45 strain. The plates in FIG. 9, panel B are spread with the BY4741 lab strain.
In each panel, the top plate is YPD alone with a disc that contains DMSO, the bottom left plate is YPD alone with a disc that contains 50 μg Nystatin and the bottom right plate is YPD plus 10 mM PE with a disc that contains 50 μg Nystatin. The plates in panel are spread with the F45 strain (FIG. 9, panel A), The plates in FIG. 9, panel Bare spread with the BY4741 lab strain.

[18] = test system: S. cerevisiae biofilm formation; assay: Biofilm formation (colony morphology); type: cell-based, Saccharomyces cerevisiae; conditions: determined by colony morphology; previous experiments
Experimental: In each panel, the left plate is YPD alone and the right plate is YPD plus 10 mM PE (a concentration that inhibits the fluffy colony morphology). Each plate also contains a paper disk containing the DMSO vehicle (FIG. 1, panel A), 25 μg fluconazole (FIG. 1, panel B), 50 μg fluconazole (FIG. 1, panel C), or 100 μg fluconazole (FIG. 1, panel D).
However, previous experiments determined that biofilm formation was inhibited at PE concentrations of 10 mM or higher. Attention is drawn to FIG. 2, in which concentrations of PE that were too low to inhibit biofilm formation (determined by colony morphology) were also shown to increase the sensitivity of the yeast strain flo11D for the fluconazole which further support the hypothesis that the effect of PE on drug sensitivity is independent of its effect on biofilm formation. As such, there is a synergistic effect upon the combination of PE with fluconazole, in which the cells are more sensitive to fluconazole in the presence of PE at a higher concentration (10 mM PE). […] It is noted that even at lower concentrations of PE (<10 mM), in which the colonies are fluffy, indicating an intact cell wall or intact morphology, the PE at lower concentrations can still enhance killing by fluconazole. […] As such, even at a lower concentration, PE in combination with fluconazole has a synergistic effect on inhibiting the growth of the fungal strain.

[19] = 10 mM compound in YPD, 50 μg fluconazole disk, F45

In the case of `CO[C@H]1[C@@H](O)[C@H](O)[C@H](OC[C@@]23C[C@@H]4[C@H](C)CC[C@H]4[C@@]4(C=O)CC2C=C(C(C)C)[C@@]34C(=O)O)O[C@@H]1C` [Sordarin], the Degree of clearance (S. cerevisiae (F45); FIG. 7 Panel A, YPD + 10 mM PE + 50 μg Sordarin, F45) is reported as 4, the Degree of clearance (S. cerevisiae (F45); FIG. 7 Panel A, YPD alone, 50 μg Sordarin disk, F45) is reported as 8 and the Degree of clearance (S. cerevisiae (F45); FIG. 7 Panel B, YPD + 10 mM PE + 10 μg Sordarin, F45) is reported as 3. It also gave a Degree of clearance (S. cerevisiae (F45); FIG. 7 Panel B, YPD alone, 10 μg Sordarin disk, F45) of 2, a Degree of clearance (S. cerevisiae (F45); FIG. 7 Panel C, YPD + 10 mM PE + 1 μg Sordarin, F45) of 2 and a Degree of clearance (S. cerevisiae (F45); FIG. 7 Panel C, YPD alone, 1 μg Sordarin disk, F45) of 1. For the same molecule, the Degree of clearance (S. cerevisiae (F45); FIG. 7 Panel D, YPD + 10 mM PE + 500 μg Sordarin, F45) was 1, the Degree of clearance (S. cerevisiae (F45); FIG. 7 Panel D, YPD alone, Sordarin disk (500 ng per legend), F45) was 0 and the “Sensitivity of the fungus to the antifungal in the presence of PE” value (shortened to “Sensitivity of the fungus”) (the fungus) was “increased the sensitivity”. The Degree of clearance ([1]; FIG. 13 Panel A, YPD + 1 μg sordarin) was 1, the Degree of clearance ([1]; FIG. 13 Panel A, YPD + 1 μg sordarin + 10 mM PE) was 2 and the Degree of clearance ([1]; FIG. 13 Panel B, YPD + 10 μg sordarin) was 2. For the same molecule, the Degree of clearance ([1]; FIG. 13 Panel B, YPD + 10 μg sordarin + 10 mM PE) was 3, the Degree of clearance ([1]; FIG. 13 Panel C, YPD + 50 μg sordarin) was 3 and the Degree of clearance ([1]; FIG. 13 Panel C, YPD + 50 μg sordarin + 10 mM PE) was 4.

With `CC(C)Cc1ccc(CCCO)cc1` [G] the “Fluconazole Zone Size” value (S. cerevisiae Strain F45) was “inhibition by compound but not fluconazole”.

For `Nc1ccc(CCO)cc1` [Compound C], the “Fluconazole Zone Size” value (S. cerevisiae Strain F45) was 13 mm.

In the case of `CCc1ccc(N)cc1` [F], the “Fluconazole Zone Size” value (S. cerevisiae Strain F45) is reported as “inhibition by compound but not fluconazole”.

For `C[C@H](O)c1cccc(C#N)c1` [D], the “Fluconazole Zone Size” value (S. cerevisiae Strain F45) was 17 mm.

With `NCCCCOCCc1ccccc1` [I] the “Fluconazole Zone Size” value (S. cerevisiae Strain F45) was “no growth” and the “Growth of fungal cells on the plate with fluconazole” value (from here on “Growth of fungal cells on the plate”) (S. cerevisiae Strain F45; [19]) was “loss of growth”.

In the case of `OCCNCCc1ccccc1` [E], the “Fluconazole Zone Size” value (S. cerevisiae Strain F45) is reported as 35 mm, the “Activity compared with PE” value (S. cerevisiae Strain F45; [19]) is reported as “activity greater than PE” and the “Growth of fungal cells on the plate” value (S. cerevisiae Strain F45; [19]) is reported as “loss of growth”.

`CC(O)c1cccc(O)c1` (stereo not drawn) [A] was tested, and the “Fluconazole Zone Size” value (S. cerevisiae Strain F45) was 11 mm.

With `OCc1ccccc1` [B] the “Fluconazole Zone Size” value (S. cerevisiae Strain F45) was 11 mm.

In the case of `C[C@@H](c1ncncc1F)[C@](O)(Cn1cncn1)c1ccc(F)cc1F` [Voriconazole], the FICI [2] is reported as 0.3, the MIC [3] is reported as greater than 128 µg and the FICI [4] is reported as 2.1. It also gave an MIC [5] of 0.03125 µg, an MIC [6] of 32 µg and an FICI [7] of 0.6. The MIC [8] was 0.25 µg, the FICI [9] was 1.1 and the MIC [10] was 0.25 µg. The FICI [11] was 1.2, the MIC [12] was 0.03125 µg and the “Sensitivity of the fungus” value (the fungus) was “increased the sensitivity”. The FICI [13] was 1.1, the FICI [14] was 0.6 and the FICI [15] was 1.6. For the same molecule, the MIC [16] was 0.0156 µg and the MIC [17] was 0.5 µg.

For `C[C@@H]1[C@H](O)[C@@H](C)/C=C/C=C/CC/C=C/C=C/C=C/C=C/C(O[C@H]2O[C@H](C)[C@@H](O)[C@H](N)[C@@H]2O)CC2O[C@](O)(CC(O)C(O)CCC(O)CC(O)CC(O)CC(=O)O[C@H]1C)CC(O)C2C(=O)O` (stereo partly drawn) [Nystatin], the Degree of clearance (S. cerevisiae (F45); FIG. 9 Panel A, Strain F45, YPD + 50 μg nystatin) was 2, the Degree of clearance (S. cerevisiae (F45); FIG. 9 Panel A, Strain F45, YPD + 10 mM PE + 50 μg nystatin) was 2 and the Degree of clearance (BY4741 lab strain; YPD + 50 μg nystatin) was 2. For the same molecule, the Degree of clearance (BY4741 lab strain; YPD + 10 mM PE + 50 μg nystatin) was 2.

In the case of `OCCc1cccc(Cl)c1` [J], the “Fluconazole Zone Size” value (S. cerevisiae Strain F45) is reported as “no growth” and the “Growth of fungal cells on the plate” value (S. cerevisiae Strain F45; [19]) is reported as “loss of growth”.

In the case of `OCCc1ccccc1` [PE, phenyl ethanol], the “Fluconazole Zone Size” value (S. cerevisiae Strain F45) is reported as 27 mm, the Degree of clearance (S. cerevisiae (F45); FIG. 6 Panel A, YPD + 10 mM PE, disk with chloroform vehicle only, F45) is reported as 0 and the “Effect of PE on caspofungin sensitivity” value (S. cerevisiae (F45); YPD plus 10 mM PE, 200 ng-50 μg caspofungin disk, F45, listed as PP) is reported as “no effect”. The “PE concentration at which biofilm formation was inhibited” value [18] was no less than 10 mM.

With `OC1(Cc2ccccc2)CCCC1` [H] the “Fluconazole Zone Size” value (S. cerevisiae Strain F45) was “no growth” and the “Growth of fungal cells on the plate” value (S. cerevisiae Strain F45; [19]) was “loss of growth”.

In the case of `OC(Cn1cncn1)(Cn1cncn1)c1ccc(F)cc1F` [Fluconazole], the MIC [8] is reported as greater than 128 µg, the MIC [10] is reported as 32 µg and the “Sensitivity of the fungus” value (the fungus) is reported as “increased the sensitivity”. The MIC [16] was 0.25 µg and the MIC [17] was 8 µg.

In the case of `Nc1[nH]c(=O)ncc1F` [Flucytosine], the “Sensitivity of the fungus” value (the fungus) is reported as “increased the sensitivity”.

Molecule `CC[C@H](C)C[C@H](C)CCCCCCCCC(=O)N[C@H]1C[C@@H](O)[C@@H](NCCN)NC(=O)[C@@H]2[C@@H](O)CCN2C(=O)[C@H]([C@H](O)CCN)NC(=O)[C@H]([C@H](O)[C@@H](O)c2ccc(O)cc2)NC(=O)[C@@H]2C[C@@H](O)CN2C(=O)[C@H]([C@@H](C)O)NC1=O` [Caspofungin] has a Degree of clearance (S. cerevisiae (F45); FIG. 8 Panel A, YPD + 10 mM PE 50 μg Caspofungin (so in the source), F45) of 0 and a Degree of clearance (S. cerevisiae (F45); FIG. 8 Panel E, YPD + 10 mM PE + 200 μg Caspofungin, F45) of 0.
